# Experimental data from patent US12138250B2, “Formulations of 6-(2-hydroxy-2-methylpropoxy)-4-(6-(6-((6-methoxypyridin-3-yl)methyl)-3,6-diazabicyclo[3.1.1]heptan-3-yl)pyridin-3-yl)pyrazolo[1,5-a]pyridine-3-carbonitrile” (Loxo Oncology, Inc., priority 2017, dated 2024).
# Read-outs that look alike come from different tables or passages of the source.
# Legend:
# Assay type in all cases: physicochemical
# [1] = Dynamic Vapor Sorption (DVS)
# Description: Approximately 10 mg of sample was placed into a mesh vapor sorption balance pan and loaded into a DVS-1 dynamic vapor sorption balance by Surface Measurement Systems. The sample was subjected to a ramping profile from 40-90% relative humidity (RH) at 10% increments, maintaining the sample at each step until a stable weight had been achieved (99.5% step completion). After completion of the sorption cycle, the sample was dried using the same procedure to 0% RH and then a second sorption cycle back to 40% RH. The weight change during the sorption/desorption cycles were plotted, allowing for the hygroscopic nature of the sample to be determined. XRPD analysis was then carried out on any solid retained.
# [2] = Solvent solubility screen in 32 solvent systems; details: for solubility: 40 °C, thermodynamic from solid, read-out: Approximate solubility
# Description: A solvent solubility screen was conducted in 32 solvent systems as follows. […] Between each addition, the mixture was checked for dissolution. If no dissolution was apparent, the mixture was heated to around 40° C. and checked again. This procedure was continued until dissolution was observed or until 100 volumes of solvent had been added. Undissolved material from the solubility screen was isolated and analyzed by XRPD.
# [3] = Overnight storage at 40° C. and 75% RH with XRPD reanalysis (salt screen, temperature cycling polymorph screen); details: for Post-temperature cycling (XRPD form): analyzed wet; for Post-stability tests (XRPD form): stored at 40° C. and 75% RH overnight
# Description: Each mixture was filtered and isolated solids were analyzed (wet) by XRPD to determine crystallinity and form. Samples in which solid was not observed were stored uncapped to allow solvent evaporation. […] The samples were then reanalyzed by XRPD to determine any changes in form or crystallinity. The observations and results, including the different diffractogram patterns observed during the screen, are shown in Tables 8-32, below, and FIGS. 6A-6B through 29A-29B. After temperature cycling, each mixture was filtered and isolated solids were analyzed (wet) by XRPD to determine crystallinity and form. The samples were then stored at 40° C. and 75% RH overnight and reanalyzed by XRPD to determine any changes in form or crystallinity. Results are shown in Table 39, below, and FIGS. 40A-40D.
structure (smiles),measurement,setting,value
"COc1ccc(CN2C3CC2CN(c2ccc(-c4cc(OCC(C)(C)O)cn5ncc(C#N)c45)cn2)C3)cn1 [compound of Formula (I), 6-(2-hydroxy-2-methylpropoxy)-4-(6-(6-((6-methoxypyridin-3-yl)methyl)-3,6-diazabicyclo[3.1.1]heptan-3-yl)pyridin-3-yl)pyrazolo[1,5-a]pyridine-3-carbonitrile]",change in form post-DVS,[1]; XRPD after DVS,No change in Form
same,weight increase by DVS,"[1]; at 90% RH, material prepared as in Example 1, identified as Form 1",around 3.6%
same,hygroscopicity by DVS,"[1]; material prepared as in Example 1, identified as Form 1",moderately hygroscopic
same,solubility,"[2]; aqueous with cosolvent or surfactant or cyclodextrin, solvent Acetone:Water (50%)",< 5000 µg/mL
same,solubility,"[2]; organic solvent or mixture, solvent 1,4-Dioxane, (P) = partial solubility at 100 volumes",< 5000 µg/mL
same,solubility,"[2]; organic solvent or mixture, solvent 1-Butanol",< 5000 µg/mL
same,solubility,"[2]; organic solvent or mixture, solvent 1-Propanol",< 5000 µg/mL
same,solubility,"[2]; organic solvent or mixture, solvent 2-Ethoxyethanol, (P) = partial solubility at 100 volumes",< 5000 µg/mL
same,solubility,"[2]; organic solvent or mixture, solvent 2-Methyl THF, (P) = partial solubility at 100 volumes",< 5000 µg/mL
same,solubility,"[2]; organic solvent or mixture, solvent Acetone",< 5000 µg/mL
same,solubility,"[2]; organic solvent or mixture, solvent Anisole, (P) = partial solubility at 100 volumes",< 5000 µg/mL
same,solubility,"[2]; organic solvent or mixture, solvent CHCl3, (P) = partial solubility at 100 volumes",< 5000 µg/mL
same,solubility,"[2]; organic solvent or mixture, solvent Cyclohexane",< 5000 µg/mL
same,solubility,"[2]; organic solvent or mixture, solvent Cyclohexanone, (P) = partial solubility at 100 volumes",< 5000 µg/mL
same,solubility,"[2]; organic solvent or mixture, solvent DCM, (P) = partial solubility at 100 volumes",< 5000 µg/mL
same,solubility,"[2]; organic solvent or mixture, solvent EtOAc",< 5000 µg/mL
same,solubility,"[2]; organic solvent or mixture, solvent Ethanol",< 5000 µg/mL
same,solubility,"[2]; organic solvent or mixture, solvent IPA",< 5000 µg/mL
same,solubility,"[2]; organic solvent or mixture, solvent MEK",< 5000 µg/mL
same,solubility,"[2]; organic solvent or mixture, solvent MIBK",< 5000 µg/mL
same,solubility,"[2]; organic solvent or mixture, solvent MeOAc",< 5000 µg/mL
same,solubility,"[2]; organic solvent or mixture, solvent Nitromethane, (P) = partial solubility at 100 volumes",< 5000 µg/mL
same,solubility,"[2]; organic solvent or mixture, solvent THF, (P) = partial solubility at 100 volumes",< 5000 µg/mL
same,solubility,[2]; solvent Water,< 5000 µg/mL
same,solubility in solvent solubility screen,"[2]; DMSO, NMP, and THF/water (1%)",moderate solubility
same,solubility in solvent solubility screen,[2]; majority of solvent systems investigated,low solubility
same,Post-temperature cycling (XRPD form),"[3]; slurry in 1,4-Dioxane, 40° C./RT cycles 72 hours",Weak diffraction
same,Post-temperature cycling (XRPD form),"[3]; slurry in 1-Butanol, 40° C./RT cycles 72 hours",Weak diffraction
same,Post-temperature cycling (XRPD form),"[3]; slurry in 1-Propanol, 40° C./RT cycles 72 hours",Form 8
same,Post-temperature cycling (XRPD form),"[3]; slurry in 2-Ethoxyethanol, 40° C./RT cycles 72 hours",Weak diffraction
same,Post-temperature cycling (XRPD form),"[3]; slurry in 2-Methyl THF, 40° C./RT cycles 72 hours",Weak diffraction
same,Post-temperature cycling (XRPD form),"[3]; slurry in Acetone, 40° C./RT cycles 72 hours",Weak diffraction
same,Post-temperature cycling (XRPD form),"[3]; slurry in Acetone:Water (50%), 40° C./RT cycles 72 hours",Form 1
same,Post-temperature cycling (XRPD form),"[3]; slurry in Anisole, 40° C./RT cycles 72 hours",Form 1
same,Post-temperature cycling (XRPD form),"[3]; slurry in CHCl3, 40° C./RT cycles 72 hours",Amorphous
same,Post-temperature cycling (XRPD form),"[3]; slurry in Cyclohexane, 40° C./RT cycles 72 hours",Form 1
same,Post-temperature cycling (XRPD form),"[3]; slurry in Cyclohexanone, 40° C./RT cycles 72 hours",Weak diffraction
same,Post-temperature cycling (XRPD form),"[3]; slurry in DCM, 40° C./RT cycles 72 hours",Amorphous
same,Post-temperature cycling (XRPD form),"[3]; slurry in DMSO, 40° C./RT cycles 72 hours",Form 1
same,Post-temperature cycling (XRPD form),"[3]; slurry in EtOAc, 40° C./RT cycles 72 hours",Form 1
same,Post-temperature cycling (XRPD form),"[3]; slurry in Ethanol, 40° C./RT cycles 72 hours",Weak diffraction
same,Post-temperature cycling (XRPD form),"[3]; slurry in IPA, 40° C./RT cycles 72 hours",Form 8
same,Post-temperature cycling (XRPD form),"[3]; slurry in MEK, 40° C./RT cycles 72 hours",Weak diffraction
same,Post-temperature cycling (XRPD form),"[3]; slurry in MIBK, 40° C./RT cycles 72 hours",Form 1
same,Post-temperature cycling (XRPD form),"[3]; slurry in MeCN:Water (20%), 40° C./RT cycles 72 hours",Weak diffraction
same,Post-temperature cycling (XRPD form),"[3]; slurry in MeOAc, 40° C./RT cycles 72 hours",Weak diffraction
same,Post-temperature cycling (XRPD form),"[3]; slurry in Nitromethane, 40° C./RT cycles 72 hours",Weak diffraction
same,Post-temperature cycling (XRPD form),"[3]; slurry in THF, 40° C./RT cycles 72 hours",Weak diffraction
same,Post-temperature cycling (XRPD form),"[3]; slurry in THF:Water (1%), 40° C./RT cycles 72 hours",Weak diffraction
same,Post-temperature cycling (XRPD form),"[3]; slurry in Water, 40° C./RT cycles 72 hours",Form 1
same,Post-stability tests (XRPD form),"[3]; solid from 1,4-Dioxane",Form 1
same,Post-stability tests (XRPD form),[3]; solid from 1-Butanol,Form 1
same,Post-stability tests (XRPD form),[3]; solid from 1-Propanol,Form 1
same,Post-stability tests (XRPD form),[3]; solid from 2-Ethoxyethanol,Form 1
same,Post-stability tests (XRPD form),[3]; solid from 2-Methyl THF,Form 1
same,Post-stability tests (XRPD form),[3]; solid from Acetone:Water (50%),Form 1
same,Post-stability tests (XRPD form),[3]; solid from Acetone,Form 1
same,Post-stability tests (XRPD form),[3]; solid from Anisole,Form 1
same,Post-stability tests (XRPD form),[3]; solid from CHCl3,Form 1
same,Post-stability tests (XRPD form),[3]; solid from Cyclohexane,Form 1
same,Post-stability tests (XRPD form),[3]; solid from Cyclohexanone,Form 1
same,Post-stability tests (XRPD form),[3]; solid from DCM,Form 1
same,Post-stability tests (XRPD form),[3]; solid from DMSO,Form 1
same,Post-stability tests (XRPD form),[3]; solid from EtOAc,Form 1
same,Post-stability tests (XRPD form),[3]; solid from Ethanol,Form 1
same,Post-stability tests (XRPD form),[3]; solid from IPA,Form 1
same,Post-stability tests (XRPD form),[3]; solid from MEK,Form 1
same,Post-stability tests (XRPD form),[3]; solid from MIBK,Form 1
same,Post-stability tests (XRPD form),[3]; solid from MeCN:Water (20%),Form 1
same,Post-stability tests (XRPD form),[3]; solid from MeOAc,Form 1
same,Post-stability tests (XRPD form),[3]; solid from Nitromethane,Form 1
same,Post-stability tests (XRPD form),[3]; solid from THF,Form 1
same,Post-stability tests (XRPD form),[3]; solid from Water,Form 1
